Test results: patent US20180325117A1, “PROBIOTIC COMPOSITIONS AND USES THEREOF” (priority 2015, published 2018)

Columns and labels:
Assay type in all cases: in vivo
Clostridial scours = test: Swine gut health: scours on test farm; conditions: total population of 3,850 swine; chlorine dioxide standard water protocol, then W+ 1:6,000 in water lines
Method: Scours (dysentery) is a common ailment in swine and is symptomatic of poor gut health (gastrointestinal tract health). […] Column (B) is the number of swine (397) that were infected with scours while on a standard water protocol of chlorine dioxide to prevent biofilm in the water lines. The addition of chlorine dioxide was stopped and W+ (at a dilution of 1:6,000) was added to the water lines, the number of swine with scours was reduced to 23 (Column (C)), a 94% reduction in the number of swine with Clostridial scours.

turkeys [1] = test: Turkey mortality with water additive, flocks of 50,000 turkeys; design: mortality cumulative total per group: concentration or dose not given beside the values
Description: The mortality of the flock of 50,000 turkeys that consumed water with chlorine dioxide was 6.5% as compared to 3% for a flock of 50,000 turkeys consuming water with W+. The y-axis of FIG. 13 represents the cumulative total mortality (%), and the x-axis represents a 19-week period during which the turkeys were observed. The top dotted line represents a flock (of 50,000 turkeys) with chlorine dioxide added to their water. The middle dotted line represents a flock (of 50,000 turkeys) that for four weeks consumed water treated with chlorine dioxide (5 ppm). After four weeks, the water additive was changed to W+ diluted 1:10,000 (note the reduced slope of the mortality curve at week 5). The bottom solid line represents a flock (of 50,000 turkeys) that was fed water with W+.

turkeys [2] = test: Turkey weight versus barn standard and mortality, six barns
Description: A common practice among commercial turkey growing facilities is to compare the weight gain of their flocks against a standard that is based on the performance of the grower's previous flocks. The grower has a standard for each barn, or group of barns, based on their recorded history. […] The flocks in the barns being fed W+ in their water (Barns-055, Barn-043, and Barn-025) exceeded standard weights by 11.7%, while the barns where the turkeys were fed water with chlorine dioxide (Barns-041, Barn-047, and Barn-045) were −7.6% compared to standard weights. The y-axis represents % deviation from a standard (Std)(average for each barn), and the x-axis represents data obtained from turkeys in six different barns (approximately 17,000 turkeys per barn).

Mastitis = test: Teat spray of lactating dairy cows: somatic cell count and Mastitis; conditions: 210 lactating cows
Description: The efficacy of iodine versus D+t128 in reducing the presence of Mastitis was studied. […] 210 lactating dairy cows were milked twice a day for four weeks. The somatic cell count (SCC) of the herd at the beginning of the test period was 263,000/ml, as shown in the two right-hand columns of the top panel of FIG. 21. The standard protocol using iodine was as follows: prior to each milking, the teats of the dairy cows were sprayed with 0.5% iodine. After each milking, the teats of the dairy cows were sprayed with 1.0% iodine. Mastitis was evident on 27 of the cows (see bottom panel of FIG. 21). Treatment with iodine was then stopped, and D+t128 was used to treat the teats of the cows. Prior to each milking, the teats of the dairy cows were sprayed with 1.25 ounces of D+t128 at a dilution of 1:128. After each milking, the teats of the dairy cows were sprayed with 1.25 ounces of D+t128 at a dilution of 1:128. At the end of the test period, the SSC had decreased from 263,000/ml to 120,000/ml in the herd treated with D+t128 (see two right-hand columns of the top panel of FIG. 21). The lower the SSC, the healthier the cow; the lower SSC reading correlates with the reduced number of cows with Mastitis. The number of cows with Mastitis had decreased from 27 to 12 (see two right-hand columns of bottom panel of FIG. 21). The SSC values are an average of all milk obtained from the 210 lactating cows. […]

hairy wart and foot rot = test: Hoof spray of lactating cows: lameness, hairy wart and foot rot

## [O][Cl+][O-] [chlorine dioxide]
Clostridial scours
  number of swine infected with scours: 397
Turkeys [1]; Week 1
  mortality cumulative total per group: 0.74%
Turkeys [1]; Week 2
  mortality cumulative total per group: 1.45%
Turkeys [1]; Week 3
  mortality cumulative total per group: 1.84%
Turkeys [1]; Week 4
  mortality cumulative total per group: 2.15%
Turkeys [1]; Week 5
  mortality cumulative total per group: 3.52%
Turkeys [1]; Week 6
  mortality cumulative total per group: 3.97%
Turkeys [1]; Week 7
  mortality cumulative total per group: 4.22%
Turkeys [1]; Week 8
  mortality cumulative total per group: 4.46%
Turkeys [1]; Week 9
  mortality cumulative total per group: 4.62%
Turkeys [1]; Week 10
  mortality cumulative total per group: 4.79%
Turkeys [1]; Week 11
  mortality cumulative total per group: 5.01%
Turkeys [1]; Week 12
  mortality cumulative total per group: 5.14%
Turkeys [1]; Week 13
  mortality cumulative total per group: 5.29%
Turkeys [1]; Week 14
  mortality cumulative total per group: 5.46%
Turkeys [1]; Week 15
  mortality cumulative total per group: 5.63%
Turkeys [1]; Week 16
  mortality cumulative total per group: 5.82%
Turkeys [1]; Week 17
  mortality cumulative total per group: 6.05%
Turkeys [1]; Week 18
  mortality cumulative total per group: 6.29%
Turkeys [1]; Week 19
  mortality cumulative total per group: 6.54%
Turkeys [1]; Week 20
  mortality cumulative total per group: 6.84%
Turkeys [1]; Week 21
  mortality cumulative total per group: 6.74%
Turkeys [1]; flock of 50,000 turkeys, FIG. 13, 19-week period, W+ 1:10,000, chlorine dioxide 5 ppm in water
  mortality of the flock (cumulative total): 6.5%
Turkeys [2]; FIG. 23, turkeys fed water with additive
  mortality rate (average): 12.3%
Turkeys [2]; three barns per water additive, approximately 17,000 turkeys per barn, FIG. 14
  deviation from standard weights: −7.6%

## II [iodine]
Mastitis; iodine protocol = beginning of test period, D+t128 1:128 teat spray before and after each milking = end of 28-day test period
  somatic cell count (SCC) of the herd: 263,000 /ml
Mastitis; iodine protocol = start, D+t128 1:128 = finish of 28-day test period
  number of cows with Mastitis: 27

## O=S(=O)([O-])[O-].[Cu+2] [Copper-Sulphate]
Hairy wart and foot rot; herd of 500 lactating cows, Copper-Sulphate spray = T0 start, D+h100 1:100 spray = day 35
  percentage of lame cows: over 35%
Hairy wart and foot rot; start of test period, prior Copper-Sulphate spray, data not shown
  cows with swelling indicating new hairy wart formation: 60%
